Assays:
T98G = test: Cytostatic activity against human T98G cells assessed as reduction in cell viability after 48 hrs by MTT assay; type: functional, cell-based
[1] = Half life in human serum at 2 mM by HPLC analysis; type: ADME, cell-free
[2] = Selectivity index, ratio of IC50 for human MRC5 cells to IC50 for human U87MG cells; type: toxicity; details: MRC5 cells and U87MG cells, read-out: Ratio IC50
[3] = Half life in RPMI/FBS cell culture media 9:1 (v/v) at 2 mM by HPLC analysis; type: physicochemical; details: cattle
HeLa = test: Cytostatic activity against human HeLa cells assessed as reduction in cell viability after 48 hrs by MTT assay; type: functional, cell-based
[4] = Selectivity index, ratio of IC50 for human MRC5 cells to IC50 for human T98G cells; type: toxicity; details: MRC5 cells and T98G cells, read-out: Ratio IC50
MRC5 = test: Cytostatic activity against human MRC5 cells assessed as reduction in cell viability after 48 hrs by MTT assay; type: functional, cell-based; details: MRC5, 48 h
Caco-2 = test: Cytostatic activity against human Caco2 cells assessed as reduction in cell viability after 48 hrs by MTT assay; type: functional, cell-based; details: Caco-2, 48 h
U-118-MG = test: Cytostatic activity against human U118MG cells assessed as reduction in cell viability after 48 hrs by MTT assay; type: functional, cell-based
U-87 MG = test: Cytostatic activity against human U87MG cells assessed as reduction in cell viability after 48 hrs by MTT assay; type: functional, cell-based, U-87MG ATCC
[5] = Stability in RPMI cell culture media at 2 mM by HPLC analysis; type: physicochemical; details: 2000 µM
T47D = test: Cytostatic activity against human T47D cells assessed as reduction in cell viability after 48 hrs by MTT assay; type: functional, cell-based
[6] = Selectivity index, ratio of IC50 for human MRC5 cells to IC50 for human U118MG cells; type: toxicity; details: MRC5 cells and U118MG cells, read-out: Ratio IC50
[7] = Half life in RPMI/FBS cell culture media 9:1 (v/v) assessed as cumulative concentration of metabolites of known anticancer activity at 2 mM by HPLC analysis; type: ADME; details: 2000 µM

SMILES	half-life at 2000 µM [1] [h]	half-life at 2000 µM [3] [h]	IC50 (HeLa) [µM]	IC50 (Caco-2) [µM]	IC50 (U-87 MG) [µM]	Stability [5]	IC50 (T47D) [µM]	t1/2 [7] [h]	IC50 (T98G) [µM]	selectivity ratio [2]	selectivity ratio [4]	IC50 (MRC5) [µM]	IC50 (U-118-MG) [µM]	selectivity ratio [6]
O=c1[nH]c(=O)n([C@H]2C[C@H](O)[C@@H](COP(=O)(O)Oc3ccccc3)O2)cc1F	52.3	28	15.2	26.6	33.7	Stable	13.4	–	32.2	1	1	36.7	14.6	3
C[N+](C)(C)CCOP(=O)([O-])OC[C@H]1O[C@@H](n2cc(F)c(=O)[nH]c2=O)C[C@@H]1OC(=O)c1ccccc1	116	20	3.6	8.12	1.79	Stable	39.6	–	24.7	< 1	< 1	1.3	7.54	< 1
C[n+]1cccc(OP(=O)([O-])OC[C@H]2O[C@@H](n3cc(F)c(=O)[nH]c3=O)C[C@@H]2OC(=O)c2ccccc2)c1	37.3	14.8	1.26	1.38	0.59	Stable	3.91	–	3.48	10	2	5.75	3.15	2
O=c1[nH]c(=O)n([C@H]2C[C@H](O)[C@@H](COP(=O)(O)Oc3cccnc3)O2)cc1F	19.9	16.7	0.7	3.39	39.8	Stable	9.35	–	1.2	< 1	7	8.5	27.5	< 1
Oc1cccnc1	–	–	–	–	> 500	–	–	–	> 500	–	–	> 500	> 500	–
CCCCCCCCCc1ccc(OP(=O)(O)OC[C@H]2O[C@@H](n3cc(F)c(=O)[nH]c3=O)C[C@@H]2OC(=O)c2ccccc2)cc1	> 120	> 120	40.1	20.4	6.73	Stable	26.7	–	6.74	6	6	39.9	11	4
Oc1ccc[n+](Cc2ccccc2)c1	–	–	–	–	> 200	–	–	–	> 200	–	–	> 200	> 200	–
CCOC(=O)C[n+]1cccc2cc(OP(=O)([O-])OC[C@H]3O[C@@H](n4cc(F)c(=O)[nH]c4=O)C[C@@H]3OC(=O)c3ccccc3)ccc21	5.9	2	0.6	28.9	0.53	Stable	21.6	15.6	13	66	3	34.9	0.76	46
C[N+]1(C)CCC(OP(=O)([O-])OC[C@H]2O[C@@H](n3cc(F)c(=O)[nH]c3=O)C[C@@H]2OC(=O)c2ccccc2)CC1	> 120	> 120	27.2	15.7	1.28	Stable	11.9	–	6.7	7	1	8.3	4.42	2
O=C(O[C@H]1C[C@H](n2cc(F)c(=O)[nH]c2=O)O[C@@H]1COP(=O)(O)Oc1ccc2ncccc2c1)c1ccccc1	16.5	7.7	7.3	2.46	0.88	Stable	7.14	–	1.3	1	1	1.3	0.79	2
C[N+](C)(CCOP(=O)([O-])OC[C@H]1O[C@@H](n2cc(F)c(=O)[nH]c2=O)C[C@@H]1OC(=O)c1ccccc1)Cc1ccccc1	96.3	54	1.5	11.7	0.61	Stable	33	–	2	1	< 1	0.6	3.69	< 1
O=C(O[C@H]1C[C@H](n2cc(F)c(=O)[nH]c2=O)O[C@@H]1COP(=O)([O-])Oc1ccc[n+](Cc2ccccc2)c1)c1ccccc1	14.4	10.8	0.53	0.43	0.66	Stable	3.43	–	2.6	58	15	38.5	1.47	26
CCCCCCCCCC[n+]1cccc(OP(=O)([O-])OC[C@H]2O[C@@H](n3cc(F)c(=O)[nH]c3=O)C[C@@H]2OC(=O)c2ccccc2)c1	8.3	16.5	1.2	12.9	0.67	Stable	8.73	–	0.4	21	35	14.1	0.32	44

Continued, in another order:

half-life at 2000 µM [1] [h]	half-life at 2000 µM [3] [h]	IC50 (HeLa) [µM]	IC50 (Caco-2) [µM]	IC50 (U-87 MG) [µM]	Stability [5]	IC50 (T47D) [µM]	t1/2 [7] [h]	SMILES	IC50 (T98G) [µM]	selectivity ratio [2]	selectivity ratio [4]	IC50 (MRC5) [µM]	IC50 (U-118-MG) [µM]	selectivity ratio [6]
26.2	26	7.3	1.4	10.7	Stable	8.11	–	O=c1[nH]c(=O)n([C@H]2C[C@H](O)[C@@H](COP(=O)(O)Oc3ccc4ncccc4c3)O2)cc1F	1.9	< 1	< 1	1.3	7.07	< 1
> 120	> 120	> 80	> 80	35.9	Stable	> 80	–	C[N+]1(Cc2ccccc2)C2CCC1CC(OP(=O)([O-])OC[C@H]1O[C@@H](n3cc(F)c(=O)[nH]c3=O)C[C@@H]1OC(=O)c1ccccc1)C2 (stereo not given in full)	49.9	2	1	62.5	66.3	1
–	–	–	–	> 200	–	–	–	CCOC(=O)C[n+]1cccc2cc(O)ccc21	> 200	–	–	162	> 200	–
1.4	1.1	6.1	2.62	0.58	Stable	12.7	8.6	CCOC(=O)C[n+]1cccc(OP(=O)([O-])OC[C@H]2O[C@@H](n3cc(F)c(=O)[nH]c3=O)C[C@@H]2OC(=O)c2ccccc2)c1	1.6	15	5	8.6	1.54	6
17.8	6.7	6.9	2.5	0.71	Stable	14.4	–	O=C(O[C@H]1C[C@H](n2cc(F)c(=O)[nH]c2=O)O[C@@H]1COP(=O)(O)Oc1cccnc1)c1ccccc1	1.3	22	12	15.6	0.92	17
5.1	6.6	5.86	1.02	0.8	Stable	6.88	–	O=C(O[C@H]1C[C@H](n2cc(F)c(=O)[nH]c2=O)O[C@@H]1COP(=O)(O)Oc1ccccc1)c1ccccc1	0.81	2	2	1.27	0.97	1
–	–	–	–	158	–	–	–	CCCCCCCCCC[n+]1cccc(O)c1	55.6	–	–	126	125	–
–	–	–	–	> 200	–	–	–	CCOC(=O)C[n+]1cccc(O)c1	> 200	–	–	> 200	> 200	–
